# Experiments:
# [1] = biological target: T1, SyGlnB (PII) in complex with SyBCCP (Synechocystis sp. PCC 6803, UniProt Q55247); assay: pull-down of GlnB with His-BCCP on Ni-NTA magnetic beads, SDS-PAGE densitometry, 2-OG titration; type: binding; set-up: gene glnB; GlnB C-terminally Strep-tagged (pASK-IBA3glnBSc); bait His-tagged BCCP (pET15accB), biotinylated with E. coli BirA; both expressed in E. coli and purified; GlnB homotrimer; with Biotin carboxyl carrier protein of acetyl-CoA carboxylase; conditions: read-out: apparent IC50
# T1 sequence (Q55247 whole entry): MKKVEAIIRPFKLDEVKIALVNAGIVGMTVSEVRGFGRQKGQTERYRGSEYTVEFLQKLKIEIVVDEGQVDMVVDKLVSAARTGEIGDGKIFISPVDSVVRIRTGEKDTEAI
# T1 sequence (Q55120 1-154 partner): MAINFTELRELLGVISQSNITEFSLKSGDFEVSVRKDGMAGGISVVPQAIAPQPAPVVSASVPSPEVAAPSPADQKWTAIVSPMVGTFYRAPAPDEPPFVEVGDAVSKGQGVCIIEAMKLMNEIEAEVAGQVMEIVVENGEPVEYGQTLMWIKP
# [2] = biological target: T2, SyGlnB (PII) in complex with SyBCCP (Synechocystis sp. PCC 6803, UniProt Q55247, S49C); assay: biochemical
# T2 construct: gene glnB
# T2 sequence (Q55120 entry or part of it, stated change not applied): as the sequence (Q55120 1-154 partner) above
# T2 sequence (Q55247 whole entry S49C): as the sequence (Q55247 whole entry) above, with S49C counted along it
# [3] = biological target: T3, SyGlnB (PII) in complex with SyBCCP (Synechocystis sp. PCC 6803, UniProt Q55247, S49D); assay: biochemical
# T3 construct: gene glnB
# T3 sequence (Q55247 whole entry S49D): as the sequence (Q55247 whole entry) above, with S49D counted along it
# T3 sequence (Q55120 entry or part of it, stated change not applied, further chain): as the sequence (Q55120 1-154 partner) above
# [4] = biological target: T1, SyGlnB (PII) in complex with SyBCCP; assay: biochemical; set-up: gene glnB
IC50 [1] [µM],EC50 [2] [µM],EC50 [3] [µM],EC50 [4] [µM],SMILES
41.3,,,,O=C(O)CCC(=O)C(=O)O [2-OG]
,143,231,68,Nc1ncnc2c1ncn2[C@@H]1O[C@H](COP(=O)(O)OP(=O)(O)OP(=O)(O)O)[C@@H](O)[C@H]1O [ATP]
